Reference: article PMC7216583 (Parasites & Vectors, 2020)
Where two headings read alike, the source gives them in different places.

Tests used:
[1] = target: influenza viral neuraminidase; design: method as in vendor catalog number S2716; conditions: median; compound library brief description; ref vendor catalog number S2716; read-out: IC50 of median (influenza viral neuraminidase inhibitor); cited from earlier work
[2] = tested on: Toxoplasma gondii RH-2F tachyzoites; experiment: microbe, parasite or virus in culture; conditions: 72 h
survivin = tested on: survivin; design: method as in library vendor description; conditions: ref library vendor description; cited from earlier work
SIRT1 = tested on: SIRT1; design: method as in library vendor description; conditions: ref library vendor description; cited from earlier work
CXCR4 = tested on: CXCR4; design: method as in vendor brief description; conditions: ref vendor brief description; cited from earlier work
[3] = tested on: CXCL12-mediated chemotaxis; conditions: read-out: IC50 CXCL12-mediated chemotaxis; ref vendor brief description; cited from earlier work
hedgehog = tested on: hedgehog; design: method as in library vendor description; conditions: ref library vendor description; cited from earlier work
P-gp = tested on: P-gp; design: method as in library vendor description; conditions: ref library vendor description; cited from earlier work
FKBP12 = tested on: FKBP12; design: method as in library vendor description; conditions: ref library vendor description; read-out: IC50 mTOR inhibitor of FKBP12; cited from earlier work
[4] = target: secretory phospholipase A2 (sPLA); design: method as in library vendor description; conditions: ref library vendor description; cited from earlier work
Bcl-xL = target: Bcl-xL; design: method as in library vendor description; conditions: recombinant; ref library vendor description; cited from earlier work
Bcl-2 = target: Bcl-2; design: method as in library vendor description; conditions: ref library vendor description; cited from earlier work
Mcl-1 = target: Mcl-1; design: method as in library vendor description; conditions: recombinant; ref library vendor description; cited from earlier work
in vitro = conditions: human, Host viability (%) mean
c-Met = tested on: c-Met; design: method as in library vendor description; conditions: ref library vendor description; cited from earlier work
[5] = tested on: human foreskin fibroblasts (HFFs); conditions: human, 72 h
Flt1 = tested on: Flt1; design: method as in library vendor description; conditions: ref library vendor description; cited from earlier work
Flt4 = tested on: Flt4; design: method as in library vendor description; conditions: ref library vendor description; cited from earlier work
c-Kit = tested on: c-Kit; design: method as in library vendor description; conditions: ref library vendor description; cited from earlier work
Ret = tested on: Ret; design: method as in library vendor description; conditions: ref library vendor description; cited from earlier work
AXL = tested on: AXL; design: method as in library vendor description; conditions: ref library vendor description; cited from earlier work
human cathepsin K = tested on: human cathepsin K; design: method as in library vendor description; conditions: ref library vendor description; cited from earlier work
rabbit cathepsin K = tested on: rabbit cathepsin K; design: method as in library vendor description; conditions: ref library vendor description; cited from earlier work
PDE4 = tested on: PDE4; design: method as in vendor brief description; conditions: ref vendor brief description; cited from earlier work
TNF-α = tested on: TNF-α; design: method as in vendor brief description; conditions: ref vendor brief description; cited from earlier work
SGLT2 = tested on: SGLT2; design: method as in vendor brief description; conditions: ref vendor brief description; cited from earlier work
S. aureus ribosomes = target: S. aureus ribosomes; design: method as in vendor catalog number S4056; conditions: similar potencies on both ribosomes; compound library brief description; ref vendor catalog number S4056; read-out: Kd (binds to S. aureus ribosomes); cited from earlier work
[6] = read-out: Parasite inhibition (%) mean, preliminary screen of compound library, mean
[7] = read-out: Parasite inhibition (%) mean, preliminary screen, mean

In the case of CCC(CC)[C@H](NC(C)=O)[C@@H]1[C@H](O)[C@@H](C(=O)O)C[C@H]1NC(=N)N [Peramivir Trihydrate], the IC50 [1] is listed as 0.09 nM and the inhibition of growth at 5 µM [2, 6] is listed as -0.4%.
For COCCn1c2c([n+](Cc3cnccn3)c1C)C(=O)c1ccccc1C2=O [YM155], the IC50 (survivin) is listed as 0.54 nM and the inhibition of growth at 5 µM [2, 7] is listed as 15.4%.
In the case of Cl.O=C(Nc1ccccc1-c1cn2c(CN3CCNCC3)csc2n1)c1cnc2ccccc2n1 [SRT1720], the “EC1.5 SIRT1 activation” value (SIRT1) is listed as “SRT1720 is a selective SIRT1 activator with EC1.5 of 0.16 μM” and the inhibition of growth at 5 µM [2, 7] is listed as 18.3%.
For c1cc(CN2CCCNCCNCCCNCC2)ccc1CN1CCCNCCNCCCNCC1 [Plerixafor (AMD3100)], the IC50 (CXCR4) is given as 44 nM, the IC50 [3] is given as 5.7 nM and the inhibition of growth at 5 µM ([2]; read-out: Parasite inhibition (%) mean) is given as 12.9%.
In the case of CS(=O)(=O)c1ccc(C(=O)Nc2ccc(Cl)c(-c3ccccn3)c2)c(Cl)c1 [Vismodegib (GDC-0449)], the IC50 (hedgehog) is given as 3 nM, the IC50 (P-gp) is given as […] and the inhibition of growth at 5 µM [2, 7] is given as 25.5%.
For CO[C@H]1C[C@@H]2CC[C@@H](C)[C@@](O)(O2)C(=O)C(=O)N2CCCC[C@H]2C(=O)O[C@H]([C@@H](C)C[C@@H]2CC[C@@H](OCCO)[C@H](OC)C2)CC(=O)[C@H](C)/C=C(\C)[C@H](O)[C@@H](OC)C(=O)[C@H](C)C[C@H](C)/C=C/C=C/C=C/1C [Everolimus (RAD001)], the IC50 (FKBP12) is given as 1.6 to 2.4 nM and the inhibition of growth at 5 µM [2, 7] is given as 14.5%.
In the case of CCc1c(C(=O)C(N)=O)c2c(OCC(=O)O)cccc2n1Cc1ccccc1 [Varespladib (LY315920)], the IC50 [4] is listed as 7 nM and the inhibition of growth at 5 µM [2, 7] is listed as 36.6%.
In the case of CC(C)c1ccccc1Cc1cc(C(=O)Nc2ccc(S(=O)(=O)c3ccccc3C(C)(C)C)cc2)c(O)c(O)c1O [TW-37], the Ki (Bcl-xL) is given as 1110 nM, the Ki (Bcl-2) is given as 290 nM and the Ki (Mcl-1) is given as 260 nM. It also gave an inhibition of growth at 5 µM [2, 7] of 58.9%.
For Cn1cc(-c2ccc3nnc(C(F)(F)c4ccc5ncccc5c4)n3n2)cn1 [JNJ-38877605], the viability at 72 h (in vitro) is listed as 77.5%, the IC50 (c-Met) is listed as 4 nM and the inhibition of growth at 5 µM [2, 7] is listed as 84.3%.
For COc1cc2nccc(Oc3ccc(NC(=O)C4(C(=O)Nc5ccc(F)cc5)CC4)cc3)c2cc1OC [XL-184 (Cabozantinib)], the “Host viability (%) mean” value [5] is given as 50.8%, the IC50 (Flt1) is given as 12 nM and the IC50 (Flt4) is given as 6 nM. For the same molecule, the IC50 (c-Kit) was […], the IC50 (Ret) was […] and the IC50 (AXL) was […]. It also gave an inhibition of growth at 5 µM [2, 7] of 82.5%.
For CC(C)(F)C[C@H](N[C@@H](c1ccc(-c2ccc(S(C)(=O)=O)cc2)cc1)C(F)(F)F)C(=O)NC1(C#N)CC1 [Odanacatib (MK 0822)], the IC50 (human cathepsin K) is listed as 0.2 nM, the IC50 (rabbit cathepsin K) is listed as 1 nM and the inhibition of growth at 5 µM [2, 7] is listed as -9.7%.
For CCOc1cc([C@@H](CS(C)(=O)=O)N2C(=O)c3cccc(NC(C)=O)c3C2=O)ccc1OC [Apremilast (CC-10004)], the IC50 (PDE4) is given as 74 nM, the IC50 (TNF-α) is given as 77 nM and the inhibition of growth at 5 µM [2, 6] is given as -1.4%.
For OC[C@H]1O[C@@H](c2ccc(Cl)c(Cc3ccc(O[C@H]4CCOC4)cc3)c2)[C@H](O)[C@@H](O)[C@@H]1O [Empagliflozin (BI10773)], the IC50 (SGLT2) is given as 3.1 nM and the inhibition of growth at 5 µM [2, 6] is given as 3.8%.
For C=C[C@]1(C)C[C@@H](OC(=O)CS[C@@H]2C[C@H]3CC[C@@H](C2)N3C)[C@]2(C)[C@H](C)CC[C@]3(CCC(=O)[C@H]32)[C@@H](C)[C@@H]1O [Retapamulin], the Kd (S. aureus ribosomes) is listed as 3 nM.
